From patent publication US5635527A, “Carboxylic acid compound having condensed ring, salt thereof and pharmaceutical use thereof” (The Green Cross Corporation, priority 1994, dated 1997) come the findings set out here.

As a reminder, the IC50 is the concentration at which inhibition is half-maximal.

The structures appear in SMILES notation.

The assay deals with human platelets. Description: suppressive activity on ADP aggregation of human platelets. In kind it is cell-based. The following applies: platelet rich plasma, ADP 1-5 μM, compound added 2 minutes before ADP, read-out: Suppression of platelet aggregation (IC50). On the procedure:
Determination of suppressive activity on ADP aggregation of human platelets
Platelet rich plasma was prepared from the blood taken from healthy humans by centrifugation in the presence of 0.38% sodium citrate, and used for the determination.
Two minutes after the test compounds shown in Table 1 were added to the above-mentioned platelet rich plasma, ADP (adenosine-5'-diphosphate) (1-5 μM) having a concentration at which primary aggregation alone is observed was added, and the suppression of ADP aggregation by the compounds was evaluated. The percent suppression was determined by varying the concentration of the compounds and the concentration of the compound at which the aggregation was suppressed by 50% (IC50) was calculated, which was taken as the activity of the compound.
As to `N=C(NCc1ccccc1)c1ccc2oc(C(=O)Nc3ccc(OCC(=O)O)cc3)cc2c1` [Compound 5, 4-[(5-Benzylamidino-2-benzofuranyl)carbonylamino]phenoxy-acetic acid], the IC50 stood at 100 nM.
As for `N=C(N)c1ccc2oc(C(=O)Nc3ccc(OCC(=O)O)cc3)cc2c1` [Compound 10, 4-[(5-Amidino-2-benzofuranyl)carbonylamino]phenoxyacetic acid], the figure is 30 nM; as for `N=C(N)c1ccc2cc(C(=O)Nc3ccc(OCC(=O)O)cc3)oc2c1` [Compound 12, 4-[(6-Amidino-2-benzofuranyl)carbonylamino]phenoxyacetic acid], 230 nM.
As for `Cc1c(C(=O)Nc2ccc(OCC(=O)O)cc2)oc2ccc(C(=N)N)cc12` [Compound 16, 4-[(5-Amidino-3-methyl-2-benzofuranyl)carbonylamino]phenoxyacetic acid], the IC50 is 40 nM.
As for `CN(C(=O)c1cc2cc(C(=N)N)ccc2o1)c1ccc(OCC(=O)O)cc1` [Compound 21, 4-[(5-Amidino-2-benzofuranyl)carbonyl-N-methylamino]phenoxyacetic acid], the IC50 amounted to 100 nM.
As for `N=C(N)c1ccc2oc(C(=O)Nc3ccc(OCC(=O)O)c(OCC(=O)O)c3)cc2c1` [Compound 29, [[4-[(5-Amidino-2-benzofuranyl)carbonylamino]-o-phenylene]dioxy]diacetic acid], the half-inhibitory concentration (IC50) is 30 nM.
Turning to `COC(=O)CCc1ccc(NC(=O)c2cc3cc(C(=N)N)ccc3o2)cc1` [Compound 35, Methyl 3-[4-[(5-amidino-2-benzofuranyl)carbonylamino]phenyl]propionate], the IC50 came out at 500 nM.
As for `N=C(N)c1ccc2oc(C(=O)Nc3ccc(CCC(=O)O)cc3)cc2c1` [Compound 37, 3-[4-[(5-Amidino-2-benzofuranyl)carbonylamino]phenyl]propionate], the IC50 is 40 nM.
As for `N=C(N)c1ccc2oc(C(=O)Nc3ccc(C[C@H](N)C(=O)O)cc3)cc2c1` [Compound 46, (S)-3-[4 [(5-Amidino-2-benzofuranyl)carbonylamino]phenyl]-2-aminopropionic acid], the figure is 60 nM; as for `CCCCS(=O)(=O)NC(Cc1ccc(NC(=O)c2cc3cc(C(=N)N)ccc3o2)cc1)C(=O)O` (centres unmarked) [Compound 48, 3-[4-[(5-Amidino-2-benzofuranyl)carbonylamino]phenyl]-2-(n-butylsulfonylamino)propionic acid], 10 nM; as for `N=C(N)c1ccc2oc(C(=O)Nc3ccc(C[C@H](NS(=O)(=O)C(F)(F)F)C(=O)O)cc3)cc2c1` [Compound 55, (S)-3-[4-[(5-Amidino-2-benzofuranyl)carbonylamino]phenyl]-2-(trifluoromethylsulfonylamino)propionic acid], 70 nM.
For `N=C(N)c1ccc2oc(C(=O)Nc3ccc(C[C@H](NC(=O)COC4CCNCC4)C(=O)O)cc3)cc2c1` [Compound 56, (S)-3-[4-[(5-Amidino-2-benzofuranyl)carbonylamino]phenyl]2-[(4-piperidinyloxy)acetylamino]propionic acid], the IC50 was found to be 30 nM.
As for `COc1ccc(CCC(=O)N[C@@H](Cc2ccc(NC(=O)c3cc4cc(C(=N)N)ccc4o3)cc2)C(=O)O)cc1` [Compound 61, (S)-3-[4-[(5-Amidino-2-benzofuranyl)carbonylamino]phenyl]-2-[3-(4-methoxyphenyl)propionylamino]propionic acid], the figure is 30 nM; as for `N=C(N)c1ccc2oc(C(=O)Nc3ccc(NCC(=O)O)cc3)cc2c1` [Compound 70, [4-[(5-Amidino-2-benzofuranyl)carbonylamino]anilino]acetic acid], 150 nM.
With `CCCCC(=O)N(CC(=O)O)c1ccc(NC(=O)c2cc3cc(C(=N)N)ccc3o2)cc1` [Compound 74, [4-[(5-Amidino-2-benzofuranyl)carbonylamino]-N-(n-valeryl)anilino]acetic acid], the IC50 is 230 nM.
As for `N=C(N)c1ccc2cc(C(=O)Nc3ccc(OCC(=O)O)cc3)[nH]c2c1` [Compound 95, 4-[(6-Amidino-2-indolyl)carbonylamino]phenoxyacetic acid], the IC50 turned out to be 60 nM.
Take `Cn1c(C(=O)Nc2ccc(OCC(=O)O)cc2)cc2ccc(C(=N)N)cc21` [Compound 118, 4-[(6-Amidino-1-methyl-2-indolyl)carbonylamino]phenoxyacetic acid]: the IC50 was found to be 200 nM.
Turning to `N=C(N)c1ccc2sc(C(=O)Nc3ccc(OCC(=O)O)cc3)cc2c1` [Compound 134, 4-[(5-Amidinobenzo[b]thien-2-yl)carbonylamino]phenoxyacetic acid], the 50% inhibitory concentration (IC50) is 700 nM.
Consider `N=C(N)c1ccc2cc(C(=O)Nc3ccc(OCC(=O)O)cc3)sc2c1` [Compound 135, 4-[(6-Amidinobenzo[b]thien-2-yl)carbonylamino]phenoxyacetic acid], for which the IC50 came out at 20 nM.
As for `N=C(N)c1ccc2oc(C(=O)OC3CCC(OCC(=O)O)CC3)cc2c1` (centres unmarked) [Compound 152, [4-[(5-Amidino-2-benzofuranyl)carbonyloxy]cyclohexyloxy]acetic acid], the figure is 80 nM; as for `CCOC(=O)CC[C@H]1CC[C@H](NC(=O)c2cc3cc(C(=N)N)ccc3o2)CC1` [Compound 159], 70 nM; as for `N=C(N)c1ccc2oc(C(=O)N[C@H]3CC[C@H](CCC(=O)OCCO)CC3)cc2c1` [Compound 163, 2-Hydroxyethyl trans-3-[4-[(5-amidino-2-benzofuranyl)carbonylamino]cyclohexyl]propionate], 450 nM.
As for `N=C(N)c1ccc2oc(C(=O)N[C@H]3CC[C@H](OCC(=O)OCCO)CC3)cc2c1` [Compound 164, 2-Hydroxyethyl trans-[4-[(5-amidino-2-benzofuranyl)carbonylamino]cyclohexyloxy]acetate], the figure is 180 nM.
For `N=C(N)c1ccc2oc(C(=O)NC3CCC(CCC(=O)O)CC3)cc2c1` (centres unmarked) [Compound 165, 3-[4-[(5-Amidino-2-benzofuranyl)carbonylamino]cyclohexyl]propionic acid], the 50% inhibitory concentration (IC50) was 10 nM.
Regarding `N=C(N)c1ccc2oc(C(=O)N[C@H]3CC[C@H](CCC(=O)O)CC3)cc2c1` [Compound 167, trans-3-[4-[(5-amidino-2-benzofuranyl)carbonylamino]cyclohexyl]propionic acid], the IC50 stood at 6 nM.
On to `N=C(N)c1ccc2oc(C(=O)N[C@H]3CC[C@H](OCC(=O)O)CC3)cc2c1` [Compound 179, trans-[4-[(5-Amidino-2-benzofuranyl)carbonylamino]cyclohexyloxy]acetic acid], for which the half-inhibitory concentration (IC50) was determined as 10 nM.
For the compound `Cc1c(C(=O)N[C@H]2CC[C@H](OCC(=O)O)CC2)oc2ccc(C(=N)N)cc12` [Compound 182, trans-[4-[(5-Amidino-3-methyl-2-benzofuranyl)carbonylamino]cyclohexyloxy]acetic acid], the IC50 stood at 30 nM.
Regarding `COc1c(C(=O)N[C@H]2CC[C@H](OCC(=O)O)CC2)oc2ccc(C(=N)N)cc12` [Compound 184, trans-[4-[(5-Amidino-3-methoxy-2-benzofuranyl)carbonyl-amino]cyclohexyloxy]acetic acid], the IC50 is 150 nM.
Consider `CCOC(=O)CCN1CCC(NC(=O)c2cc3cc(C(=N)N)ccc3o2)CC1` [Compound 191, Ethyl 3-[4-[(5-amidino-2-benzofuranyl)carbonylamino]-piperidino]propionate], for which the IC50 was determined as 160 nM.
As for `N=C(N)c1ccc2oc(C(=O)NC3CCN(CCC(=O)O)CC3)cc2c1` [Compound 192, 3-[4-[(5-amidino-2-benzofuranyl)carbonylamino]piperidino]propionic acid], the IC50 is 20 nM.
For `CCOC(=O)CCN1CCC(OC(=O)c2cc3cc(C(=N)N)ccc3o2)CC1` [Compound 193, Ethyl 3-[4-[(5-amidino-2-benzofuranyl)carbonyloxy]piperidino]propionate], the IC50 came out at 320 nM.
As for `N=C(N)c1ccc2oc(C(=O)N[C@H]3CC[C@H](NCC(=O)O)CC3)cc2c1` [Compound 195, trans-[4-[(5-Amidino-2-benzofuranyl)carbonylamino]cyclohexylamino]acetic acid], the figure is 20 nM.
The value for `CCOC(=O)CN(CC(=O)OCC)[C@H]1CC[C@H](NC(=O)c2cc3cc(C(=N)N)ccc3o2)CC1` [Compound 202, Diethyl trans-[4-[(5-amidino-2-benzofuranyl)carbonylamino]cyclohexylamino]diacetate] was 230 nM; that for `CC(C)(C)OC(=O)CN(CC(=O)OC(C)(C)C)[C@H]1CC[C@H](NC(=O)c2cc3cc(C(=N)N)ccc3o2)CC1` [Compound 203, di-t-butyl trans-[4-[(5-amidino-2-benzofuranyl)-carbonylamino]cyclohexylamino]diacetate] was 1750 nM; that for `N=C(N)c1ccc2oc(C(=O)N[C@H]3CC[C@H](N(CC(=O)O)CC(=O)O)CC3)cc2c1` [Compound 204, trans-[4-[(5-Amidino-2-benzofuranyl)carbonylamino]cyclohexylamino]diacetic acid] was 9 nM.
As for `CCOC(=O)CO[C@H]1CC[C@H](NC(=O)c2cc3ccc(C(=N)N)cc3[nH]2)CC1` [Compound 209, Ethyl trans-[4-[(6-Amidino-2-indolyl)carbonylamino]cyclohexyloxy]acetate], the figure is 100 nM.
As for `N=C(N)c1ccc2cc(C(=O)N[C@H]3CC[C@H](OCC(=O)O)CC3)[nH]c2c1` [Compound 212, trans-[4-[(6-Amidino-2-indolyl)carbonylamino]cyclohexyloxy]acetic acid], the IC50 was 30 nM.
On to `N=C(N)c1ccc2cc(C(=O)N[C@H]3CC[C@H](OCC(=O)O)CC3)sc2c1` [Compound 232, trans-[4-[(6-Amidinobenzo[b]thien-2-yl)carbonylamino]cyclohexyloxy]acetic acid], for which the half-maximal inhibitory concentration (IC50) was 20 nM.
